According to ChEMBL document CHEMBL1201862, “PubChem BioAssay data set” (2004):
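Following 48 hours of exposure in 96-well plates, responses at five concentrations were used to interpolate endpoints linearly. GI50 is the concentration that inhibits growth by half.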 Activity calls are given as the source filed them. Cut-off read from the data, not from the text of the source: active = GI50 up to about 1.1 µM and inactive = higher.

How the values were obtained:
Assay in all cases: NCI tumour cell line growth inhibition, 48 h
SK-MEL-5 = tested on: SK-MEL-5
DMS-273 = tested on: DMS-273
HOP-92 = tested on: HOP-92
OVCAR-4 = tested on: OVCAR-4
EKVX = tested on: EKVX
KM12 = tested on: KM12
SF-539 = tested on: SF-539
HT-29 = tested on: HT-29
NCI-H522 = tested on: NCI-H522
OVCAR-5 = tested on: OVCAR-5
M14 = tested on: M14
HOP-62 = tested on: HOP-62
PC-3 = tested on: PC-3
DMS-114 = tested on: DMS-114
HL-60 = tested on: HL-60
HCT-15 = tested on: HCT-15
A498 = tested on: A498
SK-OV-3 = tested on: SK-OV-3
TK-10 = tested on: TK-10
SF-268 = tested on: SF-268
RPMI-8226 = tested on: RPMI-8226
CCRF-CEM = tested on: CCRF-CEM
DLD-1 = tested on: DLD-1
DU-145 = tested on: DU-145
MDA-MB-435 = tested on: MDA-MB-435
SK-MEL-28 = tested on: SK-MEL-28
RXF 631 = tested on: RXF 631
UACC-257 = tested on: UACC-257
NCI-H226 = tested on: NCI-H226
NCI/ADR-RES = tested on: NCI/ADR-RES
SW-620 = tested on: SW-620
OVCAR-3 = tested on: OVCAR-3
Hs-578T = tested on: Hs-578T
HCC 2998 = tested on: HCC 2998
MDA-N = tested on: MDA-N
SR = tested on: SR
CAKI-1 = tested on: CAKI-1
IGROV-1 = tested on: IGROV-1
Malme-3M = tested on: Malme-3M
U-251 = tested on: U-251
HCT-116 = tested on: HCT-116
UACC-62 = tested on: UACC-62
NCI-H460 = tested on: NCI-H460
MOLT-4 = tested on: MOLT-4
RXF 393 = tested on: RXF 393
OVCAR-8 = tested on: OVCAR-8
K562 = tested on: K562
SF-295 = tested on: SF-295
MDA-MB-231 = tested on: MDA-MB-231
LOX IMVI = tested on: LOX IMVI
786-0 = tested on: 786-0
SK-MEL-2 = tested on: SK-MEL-2
COLO 205 = tested on: COLO 205
T47D = tested on: T47D
NCI-H23 = tested on: NCI-H23
A549 = tested on: A549
SNB-19 = tested on: SNB-19
ACHN = tested on: ACHN
MCF7 = tested on: MCF7
SN12C = tested on: SN12C
SNB-78 = tested on: SNB-78
UO-31 = tested on: UO-31
SNB-75 = tested on: SNB-75
KM-20L2 = tested on: KM-20L2
M19-MEL = tested on: M19-MEL
LXFL 529 = tested on: LXFL 529
XF498 = tested on: XF498

## Cc1nc2c(n1-c1ccc(Br)cc1)C(=O)c1ccccc1C2=O
SK-MEL-5
  GI50: 12.6 µM (inactive)
DMS-273
  GI50: 4.49 µM (inactive)
HOP-92
  GI50: 27.2 µM (inactive)
OVCAR-4
  GI50: 14.8 µM (inactive)
EKVX
  GI50: > 54.6 µM (inactive)
KM12
  GI50: 6.5 µM (inactive)
SF-539
  GI50: 7.66 µM (inactive)
HT-29
  GI50: 6.68 µM (inactive)
NCI-H522
  GI50: 10.4 µM (inactive)
OVCAR-5
  GI50: > 100 µM (inactive)
M14
  GI50: 17.7 µM (inactive)
HOP-62
  GI50: 18.3 µM (inactive)
PC-3
  GI50: 1.26 µM (inactive)
DMS-114
  GI50: 26 µM (inactive)
HL-60
  GI50: 0.783 µM (active)
HCT-15
  GI50: 1.04 µM
A498
  GI50: > 49.8 µM (inactive)
SK-OV-3
  GI50: 42.2 µM (inactive)
TK-10
  GI50: 34.4 µM (inactive)
SF-268
  GI50: 5.21 µM (inactive)
RPMI-8226
  GI50: 1.43 µM (inactive)
CCRF-CEM
  GI50: 3.16 µM (inactive)
DLD-1
  GI50: 7.59 µM (inactive)
DU-145
  GI50: 58.2 µM (inactive)
MDA-MB-435
  GI50: 6.73 µM (inactive)
SK-MEL-28
  GI50: 12.9 µM (inactive)
RXF 631
  GI50: 2.06 µM (inactive)
UACC-257
  GI50: 19.5 µM (inactive)
NCI-H226
  GI50: 51.6 µM (inactive)
NCI/ADR-RES
  GI50: 5.78 µM (inactive)
SW-620
  GI50: 7.74 µM (inactive)
OVCAR-3
  GI50: 12 µM (inactive)
Hs-578T
  GI50: 7.78 µM (inactive)
HCC 2998
  GI50: 14 µM (inactive)
MDA-N
  GI50: 6.84 µM (inactive)
SR
  GI50: 1.07 µM (active)
CAKI-1
  GI50: 12.5 µM (inactive)
IGROV-1
  GI50: 21.2 µM (inactive)
Malme-3M
  GI50: 9.95 µM (inactive)
U-251
  GI50: 3.54 µM (inactive)
HCT-116
  GI50: 1.63 µM (inactive)
UACC-62
  GI50: 2.82 µM (inactive)
NCI-H460
  GI50: 1.44 µM (inactive)
MOLT-4
  GI50: 0.989 µM (active)
RXF 393
  GI50: 14.8 µM (inactive)
OVCAR-8
  GI50: 6.52 µM (inactive)
K562
  GI50: 1.33 µM (inactive)
SF-295
  GI50: 5.45 µM (inactive)
MDA-MB-231
  GI50: 0.406 µM (active)
LOX IMVI
  GI50: 2.62 µM (inactive)
786-0
  GI50: 5.16 µM (inactive)
SK-MEL-2
  GI50: 66.4 µM (inactive)
COLO 205
  GI50: 4.38 µM (inactive)
T47D
  GI50: 19.3 µM (inactive)
NCI-H23
  GI50: 34 µM (inactive)
A549
  GI50: 6.93 µM (inactive)
SNB-19
  GI50: 3.6 µM (inactive)
ACHN
  GI50: 9.06 µM (inactive)
MCF7
  GI50: 3.62 µM (inactive)
SN12C
  GI50: 4.76 µM (inactive)
SNB-78
  GI50: 14.6 µM (inactive)
UO-31
  GI50: 7.76 µM (inactive)
SNB-75
  GI50: 20 µM (inactive)

## CC1(c2cccc3ccccc23)OC(=O)c2ccccc21 (stereo not given)
SK-MEL-5
  GI50: 13.3 µM (inactive)
DMS-273
  GI50: 10.8 µM (inactive)
HOP-92
  GI50: 13.5 µM (inactive)
OVCAR-4
  GI50: 27.7 µM (inactive)
KM-20L2
  GI50: 17.2 µM (inactive)
M19-MEL
  GI50: 21.3 µM (inactive)
EKVX
  GI50: 30.1 µM (inactive)
KM12
  GI50: 25.1 µM (inactive)
SF-539
  GI50: 14.6 µM (inactive)
HT-29
  GI50: 20.7 µM (inactive)
NCI-H522
  GI50: 25.2 µM (inactive)
OVCAR-5
  GI50: 57.1 µM (inactive)
M14
  GI50: 18.2 µM (inactive)
HOP-62
  GI50: 18.3 µM (inactive)
DMS-114
  GI50: 13.4 µM (inactive)
HL-60
  GI50: 13.4 µM (inactive)
HCT-15
  GI50: 18.6 µM
A498
  GI50: 21.5 µM (inactive)
SK-OV-3
  GI50: 32.5 µM (inactive)
TK-10
  GI50: 70.6 µM (inactive)
SF-268
  GI50: 25.5 µM (inactive)
RPMI-8226
  GI50: 19.6 µM (inactive)
CCRF-CEM
  GI50: 14.3 µM (inactive)
DLD-1
  GI50: 22.5 µM (inactive)
SK-MEL-28
  GI50: 27 µM (inactive)
RXF 631
  GI50: 20.2 µM (inactive)
UACC-257
  GI50: 22.2 µM (inactive)
NCI-H226
  GI50: 22.7 µM (inactive)
SW-620
  GI50: 21 µM (inactive)
OVCAR-3
  GI50: 23.5 µM (inactive)
HCC 2998
  GI50: 15.7 µM (inactive)
CAKI-1
  GI50: 15 µM (inactive)
IGROV-1
  GI50: 19.2 µM (inactive)
Malme-3M
  GI50: 20.7 µM (inactive)
U-251
  GI50: 20 µM (inactive)
LXFL 529
  GI50: 26.5 µM (inactive)
HCT-116
  GI50: 16.9 µM (inactive)
XF498
  GI50: 18.2 µM (inactive)
UACC-62
  GI50: 12 µM (inactive)
NCI-H460
  GI50: 21.1 µM (inactive)
MOLT-4
  GI50: 15.1 µM (inactive)
RXF 393
  GI50: 18.5 µM (inactive)
OVCAR-8
  GI50: 28.1 µM (inactive)
K562
  GI50: 12.8 µM (inactive)
SF-295
  GI50: 17.9 µM (inactive)
LOX IMVI
  GI50: 19.3 µM (inactive)
786-0
  GI50: 26.2 µM (inactive)
SK-MEL-2
  GI50: 21.3 µM (inactive)
COLO 205
  GI50: 16.2 µM (inactive)
NCI-H23
  GI50: 16 µM (inactive)
A549
  GI50: 16.7 µM (inactive)
SNB-19
  GI50: 30.1 µM (inactive)
ACHN
  GI50: 20.3 µM (inactive)
SN12C
  GI50: 22 µM (inactive)
SNB-78
  GI50: 41.7 µM (inactive)
UO-31
  GI50: 26 µM (inactive)
SNB-75
  GI50: 10 µM (inactive)
